In patent US20260248780A1, “PHARMACEUTICAL COMPOSITIONS” (Birdie Biopharmaceuticals, Inc., priority 2017, published 2026):
Converted amounts (≈) assume the structure as drawn.

Columns and labels:
[1] = Kinetic solubility in water and bio-relevant media (SGF, FaSSIF, FeSSIF) at RT; assay type: physicochemical; details: for FC: Solid form change / S: Solubility / pH: Final pH of supernatant: RT
Procedure: After being centrifuged and separated using 0.45 μm Nylon filter, filtrates were collected for HPLC and pH test, and wet cakes for XRPD characterization. If clear solutions were obtained after 24 hours, accurate concentration and purity were measured for the solutions.

[2] = Physical and chemical (solid-state) stability under 25° C./60% RH and 40° C./75% RH for one week; assay type: physicochemical; details: for Form change: XRPD
Procedure: Physicochemical stability of Type A (807919-05-A) was evaluated under 25° C./60% RH and 40° C./75% RH for one week, and 80° C. (closed) for 24 hours.

CCOCc1nc2c(N)nc3ccccc3c2n1CC(C)(C)O [Freebase Type A, 1-[4-amino-2-(ethoxymethyl)imidazo-[4,5-c]-quinolin-1-yl]-2-methylpropan-2-ol]
solubility kinetic ([1]; FaSSIF): ~2900 µg/mL (≈ 9.22 mM) | FC: Solid form change ([1]; FaSSIF, 1 hr): No | S: Solubility ([1]; FaSSIF, 1 hr): 2700 µg/mL | pH: Final pH of supernatant ([1]; FaSSIF, 1 hr): 7.0 | FC: Solid form change ([1]; FaSSIF, 2 hrs): No | S: Solubility ([1]; FaSSIF, 2 hrs): 2800 µg/mL | pH: Final pH of supernatant ([1]; FaSSIF, 2 hrs): 7.0 | FC: Solid form change ([1]; FaSSIF, 4 hrs): No | S: Solubility ([1]; FaSSIF, 4 hrs): 2800 µg/mL | pH: Final pH of supernatant ([1]; FaSSIF, 4 hrs): 7.1 | FC: Solid form change ([1]; FaSSIF, 24 hrs): No | S: Solubility ([1]; FaSSIF, 24 hrs): 2900 µg/mL | pH: Final pH of supernatant ([1]; FaSSIF, 24 hrs): 7.0 | pH: Final pH of supernatant ([1]; FeSSIF, 24 hrs): 5.4 | solubility kinetic ([1]; SGF and FeSSIF, simulated gastric fluid, SGF/FeSSIF): > 4900 µg/mL | S: Solubility ([1]; SGF, 1 hr): 2700 µg/mL | pH: Final pH of supernatant ([1]; SGF, 1 hr): 3.6 | S: Solubility ([1]; SGF, 2 hrs): 3500 µg/mL | pH: Final pH of supernatant ([1]; SGF, 2 hrs): 5.0 | S: Solubility ([1]; SGF, 4 hrs): 5000 µg/mL | pH: Final pH of supernatant ([1]; SGF, 4 hrs): 5.0 | S: Solubility ([1]; SGF, 24 hrs): 5000 µg/mL | pH: Final pH of supernatant ([1]; SGF, 24 hrs): 4.9 | FC: Solid form change ([1]; Water, 1 hr): No | S: Solubility ([1]; Water, 1 hr): 500 µg/mL | pH: Final pH of supernatant ([1]; Water, 1 hr): 8.4 | FC: Solid form change ([1]; Water, 2 hrs): No | S: Solubility ([1]; Water, 2 hrs): 500 µg/mL | pH: Final pH of supernatant ([1]; Water, 2 hrs): 8.6 | FC: Solid form change ([1]; Water, 4 hrs): No | S: Solubility ([1]; Water, 4 hrs): 500 µg/mL | pH: Final pH of supernatant ([1]; Water, 4 hrs): 8.1 | FC: Solid form change ([1]; Water, 24 hrs): No | S: Solubility ([1]; Water, 24 hrs): 500 µg/mL | pH: Final pH of supernatant ([1]; Water, 24 hrs): 8.1 | Kinetic Solubility at RT ([1]; water): ~0.5 (water) mg/mL | HPLC Purity % of Initial ([2]; 25° C./60% RH): 99.8% | HPLC Purity Area % ([2]; 25° C./60% RH): 99.15 Area % | Form change ([2]; 25° C./60% RH): No | HPLC Purity % of Initial ([2]; 40° C./75% RH): 100.0% | HPLC Purity Area % ([2]; 40° C./75% RH): 99.28 Area % | Form change ([2]; 40° C./75% RH): No
